From patent publication US7459168B2, “Insecticide transpiration apparatus” (Dainihon Jochugiku Co., Ltd., priority 2002, dated 2008)

System: mosquitos
Experiment: Insecticidal effect (knock-down effect) by the open cylinder method
Type: in vivo
Conditions: for Insecticidal effect 15d (relative effectiveness ratio): fifteenth day; for Insecticidal effect 1d (relative effectiveness ratio): first day; for Insecticidal effect 30d (relative effectiveness ratio): thirtieth day
From the text: An insecticide was impregnated in various kinds of raw materials for preparing insecticide impregnated materials. The resulting insecticide-impregnated materials were housed in their respective insecticide cartridges of Example 1 and Comparative Example 1, followed by mounting each of them on an insecticide transpiration apparatus of the present invention. Subsequently, each of them was subjected to a measurement for estimating the transpiring amount of the chemical and a test for estimating insecticide effects on the first, fifteenth and thirtieth days while using the apparatus for twelve hours a day.
A test of insecticidal effect (knock-down effect) was performed by the open cylinder method according to the following procedures.
Procedures for Estimating the Insecticidal Effect of an Insecticidal Compound
Two plastic cylinders of 20 cm in inside diameter and 43 cm in height are piled up. A cylinder of 20 cm both in inside diameter and height is partitioned vertically with a wire net of 16 mesh (the place where the mosquitos are put in), and is placed thereon. A cylinder of 20 cm in inside diameter and height is further placed thereon. This set consisting of the four cylinders is placed on a stand, and an insecticide transpiration apparatus is placed in the middle of the stand to transpire the insecticidal ingredient in the chemical-impregnated material to be examined. Then about 20 mosquitos to be tested are released in the upper stair of the cylinder set and the number of mosquitos knocked down is observed with the time elapsed.
Furthermore, the insecticidal effect was indicated as a relative effectiveness ratio in which an initial turning-over effect obtained by evaporation from a mosquito-repellent mat containing dl, d-cis, trans-allethrin (Pynamin Forte) on condition that a radiator plate of a heating unit is at a temperature of 160° C. The above test was repeated with various kinds of insecticides and the various amounts thereof, various chemical-impregnated materials and various particle sizes thereof, various free-volumes of the insecticide cartridge, various rotational speeds of the motor, respectively.

[1] = cartridge of Comparative Example 1, relative to Pynamin Forte mat
[2] = cartridge of Example 1, relative to Pynamin Forte mat
[3] = cartridge of Example 1, relative to initial effect of dl, d-cis, trans-allethrin (Pynamin Forte) mat at 160° C.

SMILES	Insecticidal effect 15d (relative effectiveness ratio) [1]	Insecticidal effect 1d (relative effectiveness ratio) [1]	Insecticidal effect 30d (relative effectiveness ratio) [1]	Insecticidal effect 15d (relative effectiveness ratio) [2]	Insecticidal effect 1d (relative effectiveness ratio) [3]	Insecticidal effect 30d (relative effectiveness ratio) [2]
CC(C)=CC1C(C(=O)OCc2c(F)c(F)cc(F)c2F)C1(C)C (stereo not drawn) [Compound A, 2,3,5,6-tetrafluorobenzyl-chrysanthemate]	3.3	3.4	3.3	3.8	3.9	3.8
CC=CC1C(C(=O)OCc2c(F)c(F)cc(F)c2F)C1(C)C (stereo not drawn) [Compound B, 2,3,5,6-tetrafluorobenzyl-2,2-dimethyl-3-(1-propenyl) cyclopropane carboxylate]	2.1	2.2	2.0	2.7	2.8	2.7
CC(C)=CC1C(C(=O)OCc2c(F)c(F)c(C)c(F)c2F)C1(C)C (stereo not drawn) [Compound C, 4-methyl-2,3,5,6-tetrafluorobenzyl-chrysanthemate]	1.7	1.8	1.6	2.2	2.3	2.2
CC=CC1C(C(=O)OCc2c(F)c(F)c(C)c(F)c2F)C1(C)C (stereo not drawn) [Compound D, 4-methyl-2,3,5,6-tetrafluorobenzyl-2,2-dimethyl-3-(1-propenyl)cyclopropane carboxylate]	2.7	2.8	2.6	3.2	3.2	3.1
Cc1c(F)c(F)c(COC(=O)C2C(C=C(F)F)C2(C)C)c(F)c1F (stereo not drawn) [Compound E, 4-methyl-2,3,5,6-tetrafluorobenzyl-2,2-dimethyl-3-(2,2-difluorovinyl)cyclopropane carboxylate]	2.3	2.4	2.3	2.8	2.9	2.8
COCc1c(F)c(F)c(COC(=O)C2C(C=C(C)C)C2(C)C)c(F)c1F (stereo not drawn) [Compound F, 4-methoxymethyl-2,3,5,6-tetrafluorobenzyl-chrysanthemate]	1.7	1.9	1.5	2.5	2.6	2.5
CC=CC1C(C(=O)OCc2c(F)c(F)c(COC)c(F)c2F)C1(C)C (stereo not drawn) [Compound G, 4-methoxymethyl-2,3,5,6-tetrafluorobenzyl-2,2-dimethyl-3-(1-propenyl)cyclopropane carboxylate]	2.8	2.9	2.8	3.4	3.4	3.4
CC1(C)C(C=C(Cl)C(F)(F)F)C1C(=O)OCc1c(F)c(F)c(F)c(F)c1F (stereo not drawn) [Compound H, 2,3,4,5,6-pentafluorobenzyl-2,2-dimethyl-3-(2-chloro-2-trifluoromethylvinyl)cyclopropane carboxylate]	1.7	1.9	1.7	2.3	2.4	2.3
C#CCc1c(F)c(F)c(COC(=O)C2C(C=CC)C2(C)C)c(F)c1F (stereo not drawn) [Compound I, 4-propargyl-2,3,5,6-tetrafluorobenzyl-3-(1-propenyl)-2,2-dimethylcyclopropane carboxylate]	2.5	2.6	2.4	2.9	3.0	2.9
COCc1c(F)c(F)c(COC(=O)C2C(C)(C)C2(C)C)c(F)c1F [Compound J, 4-methoxymethyl-2,3,5,6-tetrafluorobenzyl-2,2,3,3-tetramethylcyclopropane carboxylate]	2.4	2.5	2.4	2.8	2.9	2.8
C#CCc1c(F)c(F)c(COC(=O)C2C(C)(C)C2(C)C)c(F)c1F [Compound K, 4-propargyl-2,3,5,6-tetrafluorobenzyl-2,2,3,3-tetramethyl cyclopropane carboxylate]	2.2	2.3	2.1	2.7	2.8	2.7
